The NIST ThermoML archive (doi:10.1021/je8008073)

Test: wn = mass fraction of the nth substance listed
Details: Liquid; for mass density: Vibrating tube method; for viscosity: Falling or rolling sphere viscometry

c1ccc2c(c1)CCCC2 [1,2,3,4-tetrahydronaphthalene] + CCCCCCCCCCCC
Details | mass density [kg/m3] | viscosity [mPa·s]
293.15 K, 100 kPa, w2 = 0.5 | 844.4 | –
293.15 K, 2000 kPa, w2 = 0.5 | 845.7 | –
293.15 K, 4000 kPa, w2 = 0.5 | 846.8 | –
293.15 K, 6000 kPa, w2 = 0.5 | 848 | –
293.15 K, 8000 kPa, w2 = 0.5 | 849.5 | –
293.15 K, 10000 kPa, w2 = 0.5 | 850.8 | –
293.15 K, 12000 kPa, w2 = 0.5 | 851.9 | –
293.15 K, 14000 kPa, w2 = 0.5 | 853.1 | –
293.15 K, 16000 kPa, w2 = 0.5 | 854.2 | –
293.15 K, 18000 kPa, w2 = 0.5 | 855.4 | –
293.15 K, 20000 kPa, w2 = 0.5 | 856.6 | –
295.65 K, 100 kPa, w2 = 0.5 | 842.4 | –
295.65 K, 2000 kPa, w2 = 0.5 | 843.6 | –
295.65 K, 4000 kPa, w2 = 0.5 | 844.9 | –
295.65 K, 6000 kPa, w2 = 0.5 | 846 | –
295.65 K, 8000 kPa, w2 = 0.5 | 847.4 | –
295.65 K, 10000 kPa, w2 = 0.5 | 848.6 | –
295.65 K, 12000 kPa, w2 = 0.5 | 849.8 | –
295.65 K, 14000 kPa, w2 = 0.5 | 851 | –
295.65 K, 16000 kPa, w2 = 0.5 | 852.1 | –
295.65 K, 18000 kPa, w2 = 0.5 | 853.3 | –
295.65 K, 20000 kPa, w2 = 0.5 | 854.4 | –
298.15 K, 100 kPa, w1 = 0.48 | 835.7 | –
298.15 K, 100 kPa, w1 = 0.49 | 838.4 | –
298.15 K, 100 kPa, w1 = 0.5 | 840.7 | –
298.15 K, 100 kPa, w1 = 0.51 | 842.7 | –
298.15 K, 100 kPa, w1 = 0.52 | 844.8 | –
298.15 K, 100 kPa, w2 = 0.5 | 840.7 | 1.46
298.15 K, 2000 kPa, w1 = 0.48 | 836.9 | –
298.15 K, 2000 kPa, w1 = 0.49 | 839.7 | –
298.15 K, 2000 kPa, w1 = 0.5 | 842 | –
298.15 K, 2000 kPa, w1 = 0.51 | 844 | –
298.15 K, 2000 kPa, w1 = 0.52 | 846.1 | –
298.15 K, 2000 kPa, w2 = 0.5 | 842 | –
298.15 K, 4000 kPa, w1 = 0.48 | 838.3 | –
298.15 K, 4000 kPa, w1 = 0.49 | 841 | –
298.15 K, 4000 kPa, w1 = 0.5 | 843.4 | –
298.15 K, 4000 kPa, w1 = 0.51 | 845.3 | –
298.15 K, 4000 kPa, w1 = 0.52 | 847.5 | –
298.15 K, 4000 kPa, w2 = 0.5 | 843.4 | 1.53
298.15 K, 6000 kPa, w1 = 0.48 | 839.6 | –
298.15 K, 6000 kPa, w1 = 0.49 | 842.2 | –
298.15 K, 6000 kPa, w1 = 0.5 | 844.7 | –
298.15 K, 6000 kPa, w1 = 0.51 | 846.5 | –
298.15 K, 6000 kPa, w1 = 0.52 | 848.7 | –
298.15 K, 6000 kPa, w2 = 0.5 | 844.7 | –
298.15 K, 8000 kPa, w1 = 0.48 | 840.9 | –
298.15 K, 8000 kPa, w1 = 0.49 | 843.5 | –
298.15 K, 8000 kPa, w1 = 0.5 | 845.9 | –
298.15 K, 8000 kPa, w1 = 0.51 | 847.8 | –
298.15 K, 8000 kPa, w1 = 0.52 | 849.9 | –
298.15 K, 8000 kPa, w2 = 0.5 | 845.9 | –
298.15 K, 10000 kPa, w1 = 0.48 | 842.1 | –
298.15 K, 10000 kPa, w1 = 0.49 | 844.7 | –
298.15 K, 10000 kPa, w1 = 0.5 | 847.1 | –
298.15 K, 10000 kPa, w1 = 0.51 | 848.8 | –
298.15 K, 10000 kPa, w1 = 0.52 | 851.1 | –
298.15 K, 10000 kPa, w2 = 0.5 | 847.1 | 1.64
298.15 K, 12000 kPa, w1 = 0.48 | 843.3 | –
298.15 K, 12000 kPa, w1 = 0.49 | 845.9 | –
298.15 K, 12000 kPa, w1 = 0.5 | 848.4 | –
298.15 K, 12000 kPa, w1 = 0.51 | 850.3 | –
298.15 K, 12000 kPa, w1 = 0.52 | 852.2 | –
298.15 K, 12000 kPa, w2 = 0.5 | 848.4 | –
298.15 K, 14000 kPa, w1 = 0.48 | 844.6 | –
298.15 K, 14000 kPa, w1 = 0.49 | 847.1 | –
298.15 K, 14000 kPa, w1 = 0.5 | 849.5 | –
298.15 K, 14000 kPa, w1 = 0.51 | 851.5 | –
298.15 K, 14000 kPa, w1 = 0.52 | 853.5 | –
298.15 K, 14000 kPa, w2 = 0.5 | 849.5 | –
298.15 K, 16000 kPa, w1 = 0.48 | 845.7 | –
298.15 K, 16000 kPa, w1 = 0.49 | 848.3 | –
298.15 K, 16000 kPa, w1 = 0.5 | 850.7 | –
298.15 K, 16000 kPa, w1 = 0.51 | 852.7 | –
298.15 K, 16000 kPa, w1 = 0.52 | 854.6 | –
298.15 K, 16000 kPa, w2 = 0.5 | 850.7 | –
298.15 K, 18000 kPa, w1 = 0.48 | 846.9 | –
298.15 K, 18000 kPa, w1 = 0.49 | 849.3 | –
298.15 K, 18000 kPa, w1 = 0.5 | 851.9 | –
298.15 K, 18000 kPa, w1 = 0.51 | 853.8 | –
298.15 K, 18000 kPa, w1 = 0.52 | 855.7 | –
298.15 K, 18000 kPa, w2 = 0.5 | 851.9 | –
298.15 K, 20000 kPa, w1 = 0.48 | 848.1 | –
298.15 K, 20000 kPa, w1 = 0.49 | 850.6 | –
298.15 K, 20000 kPa, w1 = 0.5 | 853 | –
298.15 K, 20000 kPa, w1 = 0.51 | 855 | –
298.15 K, 20000 kPa, w1 = 0.52 | 857 | –
298.15 K, 20000 kPa, w2 = 0.5 | 853 | –
300.65 K, 100 kPa, w2 = 0.5 | 838.8 | –
300.65 K, 2000 kPa, w2 = 0.5 | 840 | –
300.65 K, 4000 kPa, w2 = 0.5 | 841.3 | –
300.65 K, 6000 kPa, w2 = 0.5 | 842.5 | –
300.65 K, 8000 kPa, w2 = 0.5 | 843.8 | –
300.65 K, 10000 kPa, w2 = 0.5 | 845 | –
300.65 K, 12000 kPa, w2 = 0.5 | 846.3 | –
300.65 K, 14000 kPa, w2 = 0.5 | 847.5 | –
300.65 K, 16000 kPa, w2 = 0.5 | 848.8 | –
300.65 K, 18000 kPa, w2 = 0.5 | 849.9 | –
300.65 K, 20000 kPa, w2 = 0.5 | 851 | –
303.15 K, 100 kPa, w2 = 0.5 | 837.3 | –
303.15 K, 2000 kPa, w2 = 0.5 | 838.5 | –
303.15 K, 4000 kPa, w2 = 0.5 | 839.9 | –
303.15 K, 6000 kPa, w2 = 0.5 | 841.1 | –
303.15 K, 8000 kPa, w2 = 0.5 | 842.4 | –
303.15 K, 10000 kPa, w2 = 0.5 | 843.6 | –
303.15 K, 12000 kPa, w2 = 0.5 | 844.9 | –
303.15 K, 14000 kPa, w2 = 0.5 | 846.1 | –
303.15 K, 16000 kPa, w2 = 0.5 | 847.5 | –
303.15 K, 18000 kPa, w2 = 0.5 | 848.7 | –
303.15 K, 20000 kPa, w2 = 0.5 | 849.8 | –
